These are literature values, as cited in US8603529B2, “Polynucleotide aptamer-based cross-linked materials and uses thereof” (Smartcells, Inc., priority 2009, dated 2013).

Molecules are shown by their SMILES.

The data set addresses avidin (Gallus gallus, UniProt P02701).

Chain of avidin (P02701 25-152, species assumed): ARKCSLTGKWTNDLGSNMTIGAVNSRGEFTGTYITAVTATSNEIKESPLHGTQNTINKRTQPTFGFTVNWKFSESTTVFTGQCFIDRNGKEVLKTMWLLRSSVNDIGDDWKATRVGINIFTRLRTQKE

For `O=C(O)CCCC[C@@H]1SC[C@@H]2NC(=O)N[C@@H]21` [biotin], the “binding constant between biotin and avidin” value was 10^15 M^−1.
